The assay has as its target MDM2 (Homo sapiens, UniProt Q00987). The assay can be described thus: ITC. The assay is classed as binding.

Chain of MDM2 (Q00987 428-491 limits assumed): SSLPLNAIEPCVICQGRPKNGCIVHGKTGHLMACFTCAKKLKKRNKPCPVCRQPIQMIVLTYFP

Consider `O=C(CCl)Nc1cc(O)c2c(c1)C(=O)c1cccc(O)c1C2=O` [AQ-101], for which the Kd is 370 nM.

The Kd is the equilibrium constant for the complex coming apart.

These data come from article PMC6054458 (Molecular cancer therapeutics, 2017).
